Experimental data reported in article doi:10.1101/2021.05.03.442520v1 (biorxiv, 2021).

Target: TMPRSS2 (Homo sapiens, UniProt O15393)
Experiment: fluorogenic pericellular protease assay, transfected Vero E6 cells
Format: cell-based
Details: Vero C1008, read-out: % inhibition at 10 nM

Chain of TMPRSS2 (O15393 whole entry): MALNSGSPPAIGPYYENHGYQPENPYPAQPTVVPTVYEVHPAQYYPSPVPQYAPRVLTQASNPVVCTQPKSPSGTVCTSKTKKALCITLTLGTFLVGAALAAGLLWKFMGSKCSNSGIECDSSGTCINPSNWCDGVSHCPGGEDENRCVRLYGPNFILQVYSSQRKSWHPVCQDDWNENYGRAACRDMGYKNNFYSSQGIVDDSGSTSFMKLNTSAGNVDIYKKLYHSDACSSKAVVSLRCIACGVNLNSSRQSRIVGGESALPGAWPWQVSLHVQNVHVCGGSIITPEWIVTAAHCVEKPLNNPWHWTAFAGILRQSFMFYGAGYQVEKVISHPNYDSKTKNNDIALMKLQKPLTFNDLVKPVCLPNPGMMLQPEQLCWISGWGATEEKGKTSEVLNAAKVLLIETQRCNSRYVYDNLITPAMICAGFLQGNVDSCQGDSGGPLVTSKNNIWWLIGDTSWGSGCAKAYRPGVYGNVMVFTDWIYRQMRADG

| SMILES | inhibition at 0.01 µM |
| --- | --- |
| N=C(N)NCCCCC(=O)N[C@@H](CCC(N)=O)C(=O)N[C@@H](CC1CCCCC1)C(=O)N[C@@H](CCCNC(=N)N)C(=O)c1nc2ccccc2s1 [N-0678] | 5% |
| N=C(N)NCCC[C@H](NC(=O)[C@H](Cc1ccccc1)NC(=O)[C@H](CCC(N)=O)NC(=N)N)C(=O)c1nc2ccccc2s1 [N-1296] | 16% |
